Assay results reported in paper PMC5509001, “Structure Modeling of Human Tyrosyl-DNA Phosphodiesterase 1 and Screening for Its Inhibitors” (Acta Naturae, 2017).

Target: T1, recombinant human Tdp1 (tyrosyl-DNA phosphodiesterase 1) (Homo sapiens, UniProt Q9NUW8)
T1 construct: recombinant from plasmid pET 16B Tdp1 in Escherichia coli
Assay: real-time fluorescence biosensor (FAM-oligonucleotide-BHQ1) cleavage
Assay type: biochemical
Description: real-time fluorescence biosensor (FAM-oligonucleotide-BHQ1) cleavage on recombinant human Tdp1 (tyrosyl-DNA phosphodiesterase 1)

T1 sequence (Q9NUW8 whole entry): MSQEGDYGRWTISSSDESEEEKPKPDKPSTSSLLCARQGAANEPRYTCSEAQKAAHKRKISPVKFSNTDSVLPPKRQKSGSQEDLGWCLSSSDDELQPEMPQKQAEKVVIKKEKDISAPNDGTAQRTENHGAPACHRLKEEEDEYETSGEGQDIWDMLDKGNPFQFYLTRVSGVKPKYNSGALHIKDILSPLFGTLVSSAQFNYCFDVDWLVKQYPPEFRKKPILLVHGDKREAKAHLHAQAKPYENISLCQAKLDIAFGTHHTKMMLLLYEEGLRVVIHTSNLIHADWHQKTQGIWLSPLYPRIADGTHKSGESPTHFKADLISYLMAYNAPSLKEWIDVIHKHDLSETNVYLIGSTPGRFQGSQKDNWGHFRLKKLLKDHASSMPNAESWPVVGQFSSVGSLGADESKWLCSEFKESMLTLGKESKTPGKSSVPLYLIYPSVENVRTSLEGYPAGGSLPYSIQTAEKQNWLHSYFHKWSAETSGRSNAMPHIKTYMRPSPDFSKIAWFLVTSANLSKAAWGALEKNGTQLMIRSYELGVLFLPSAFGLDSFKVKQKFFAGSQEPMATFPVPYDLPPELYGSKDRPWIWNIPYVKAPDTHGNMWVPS

IC50 [µM]	SMILES
83 ± 24	O=S(=O)(O)CCSc1nc2ccccc2s1 [STK370528]
686 ± 14	O=S(=O)(O)CCCSc1nc2ccccc2[nH]1 [STK376552]
